Experiment [1] relates to pERK in A375 cells (BRAF^V600E, homozygous). The experiment is described as follows: Phospho-ERK AlphaScreen assay, pERK inhibition in A375. Particulars: Homo sapiens, A-375, 1 h, read-out: pERK inhibition IC50 A375. Format: cell-based. The procedure:
(§1) Phospho-ERK AlphaScreen® assay: The degree of ERK phosphorylation was determined using an AlphaScreen® assay where an increase in ERK1/2 phosphorylation at Thr202/Tyr204 brought the donor and acceptor AlphaScreen® beads into close proximity, generating a signal for quantification. To determine the effects of compound treatment on phosphorylation of ERK1/2, cells were plated in a 96-well plate and treated with an 8-point titration of compound for one hour at 37° C. before lysis. To detect pERK, cell lysates were incubated with streptavidin-coated AlphaScreen® donor beads, anti-mouse IgG AlphaScreen® acceptor beads, a biotinylated anti-ERK1/2 rabbit antibody, and a mouse antibody that recognizes ERK1/2 only when it is phosphorylated on Thr202 and Tyr204. The biotinylated ERK1/2 antibody binds to both the streptavidin-coated AlphaScreen® donor beads and to ERK1/2 (regardless of its phosphorylation state), and the phospho-ERK1/2 antibody binds to the acceptor beads and to ERK1/2 that is phosphorylated at Thr202/Tyr204. An increase in ERK1/2 phosphorylation at Thr202/Tyr204 brings the donor and acceptor AlphaScreen® beads into close proximity, generating a signal that can be quantified on an EnVision reader (Perkin Elmer).
(§2) Using AlphaScreen® technology, the ability of Formula I to affect the phosphorylation of ERK and MEK in the cells was measured quantitatively. Following treatment with compound, the cells were lysed, and a sample of the lysate was transferred to an assay plate. The lysate was mixed with antibodies directed against total ERK/MEK, antibodies that recognize specific phosphorylation sites on ERK/MEK, AlphaScreen® anti-mouse IgG Acceptor beads, and Streptavidin Donor beads. Upon excitation of the donor beads with laser light at 680 nm, singlet oxygen was produced. This singlet oxygen was rapidly quenched, unless the AlphaScreen® Acceptor beads were in close proximity, in which case a proximity signal can be measured at 580 nm. In the presence of phosphorylated ERK/MEK, there is a very strong proximity signal.
(§3) 1. One day before the assay, 50,000 cells were plated in each well of a 96-well tissue-culture-treated plate (Corning #3610) in a 50 μL volume. Cells were incubated at 37° C. overnight.
(§4) 2. Compounds were diluted in DMSO to 500× final concentration. Each compound was plated as an 8-point titration, using 1:3 dilutions in DMSO. The maximum concentration was about 5 mM.
(§5) 3. 1 μl of compound was added to each well of a 96-well polypropylene plate (Corning #3363). For A375, COLO829, SK-MEL-3, HCT116, and HT-29, the high control was DMSO, and the low control was 10 μM PLX4720 (CAS No. 918505-84-7). For B9 and IPC-298, the high control was 3.33 μM PLX4720, and the low control was DMSO. 4. 249 μL growth media was added to compounds, diluting them 250-fold. 5. […] The compound was incubated with the cells at 37° C. for one hour. 6. The media was aspirated, and the cells were lysed in 50 μL of ice-cold 1× Cell Lysis buffer. The plates were incubated on ice for 5 minutes to allow complete lysis of the cells. 7. A mixture of biotinylated donor antibody, acceptor antibody, and anti-mouse IgG AlphaScreen® acceptor beads in 1× AlphaLISA immunoassay buffer was prepared. 8. 5 μL of lysate was transferred to a 384-well assay plate (Perkin Elmer #6005359). 5 μL of the antibody and acceptor bead mixture was added. The plates were spinned.

The test system of experiment [2] is pERK in COLO829 cells (BRAF^V600E, heterozygous). The experiment is described as follows: Phospho-ERK AlphaScreen assay, pERK inhibition in COLO829. The experiment is classed as cell-based. Particulars: Homo sapiens, COLO-829, 1 h, read-out: pERK inhibition IC50 COLO829. The method, then:
as §1, §2, §3, §4, §5

For experiment [3], the system named is pERK in B9 cells (HRAS^Q61L). The experiment can be described thus: Phospho-ERK AlphaScreen assay, pERK activation in B9. The experiment is classed as cell-based, murine. Particulars: Mus musculus, read-out: pERK activation EC50 B9. The procedure: as §1, §2, §3, §4, §5
(Alpha assays give light when donor and acceptor beads are brought close together.)

Experiment [4] has as its system pERK in IPC-298 cells (NRAS^Q61L). The experiment can be described thus: Phospho-ERK AlphaScreen assay, pERK activation in IPC-298. Format: cell-based, human. Conditions: Homo sapiens, IPC-298, read-out: pERK activation EC50 IPC298. The method, then:
as §1, §2, §3, §4, §5

In experiment [5] the test system is pERK in HCT116 cells (KRAS^G13D). The experiment can be described thus: Phospho-ERK AlphaScreen assay, pERK activation in HCT116. Format: cell-based. Particulars: Homo sapiens, HCT-116, read-out: pERK activation EC50 HCT116. The method, then:
as §1, §2, §3, §4, §5

Experiment [6] has as its target NIH/3T3 cells stably expressing KIAA1549-BRAF fusions (Homo sapiens, UniProt P15056). The experiment is described as follows: BRAF fusion xenograft tumor growth. Format: in vivo, balb/c nu/nu mice. Particulars: three of the four KIAA1549-BRAF fusions; PLX4720 chow. The method, then:
NIH/3T3 (ATCC® CRL-1658™) cells stably expressing KIAA1549-BRAF fusions (Fusion-1, Fusion-2, Fusion-3, and Fusion-4) were injected into the flank of balb/c nu/nu mice. Tumor growth was measured with calipers. Ellipsoid tumor volume was calculated using the following formula: volume=½·length·width^2.

These results are taken from patent publication US9814714B2, “Kinase modulation, and indications therefor” (Plexxikon Inc., priority 2015, dated 2017).

NIH/3T3 cells stably expressing KIAA1549-BRAF fusions, sequence (P15056 448-766 limits assumed): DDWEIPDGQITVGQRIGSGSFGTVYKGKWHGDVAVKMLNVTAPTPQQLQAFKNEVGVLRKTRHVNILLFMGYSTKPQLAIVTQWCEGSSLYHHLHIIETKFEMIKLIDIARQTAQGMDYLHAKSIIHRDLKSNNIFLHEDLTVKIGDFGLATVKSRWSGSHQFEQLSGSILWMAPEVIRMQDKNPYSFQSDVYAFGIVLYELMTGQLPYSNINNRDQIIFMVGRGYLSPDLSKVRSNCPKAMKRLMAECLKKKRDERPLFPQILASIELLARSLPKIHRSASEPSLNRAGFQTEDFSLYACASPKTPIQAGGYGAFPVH

In the case of `CC(C)(C)c1nc(-c2cccc(NS(=O)(=O)c3c(F)cccc3F)c2F)c(-c2ccnc(N)n2)s1` [Dabrafenib, dabrafenib], the results for the half-inhibitory concentration (IC50) in experiment [1] and in experiment [2] were 0.001 µM and 0.005 µM, respectively. Besides, the concentration for a half-maximal effect (EC50) (commonly the concentration giving half of the maximal effect) in experiment [3] is 0.01 µM; in experiment [4], 0.01 µM; in experiment [5], 0.003 µM.

As for `CCCS(=O)(=O)Nc1ccc(F)c(C(=O)c2c[nH]c3ncc(Cl)cc23)c1F` [PLX4720, reference compound], the “Effect on xenograft tumor growth (in words)” value in experiment [6] is listed as “increased tumor growth”.

Regarding `CNC(=O)c1cc(Oc2ccc(NC(=O)Nc3ccc(Cl)c(C(F)(F)F)c3)cc2)ccn1` [Sorafenib, sorafenib], the IC50 (in general, the point on the concentration scale where inhibition reaches its midpoint) stood at 4.4 µM in experiment [1] and 2 µM in experiment [2]. In addition, the half-maximal effective concentration (EC50) in experiment [3] was 0.025 µM; in experiment [4], 0.019 µM; in experiment [5], 0.086 µM.
